According to patent US20250333424A1, “ANTIVIRAL COMPOUNDS” (Gilead Sciences, Inc., priority 2024, published 2025):

Experiments:
[1] = tested on: CD4 cells, isolated from healthy donor PMBCs, infected with HIV VSV-G pseudotyped GFP-GAG reporter virus; assay: tissue or blood; assay type: cell-based; conditions: Homo sapiens, 72 h
[2] = tested on: monocytic THP1 cells infected with HIV VSV-G pseudotyped GFP-NEF reporter virus; assay: cells; assay type: cell-based; conditions: Human immunodeficiency virus 1, THP-1, 24 h

| Compound | EC50 [1] | EC50 [2] |
| --- | --- | --- |
| Cc1cc(/C=C/C#N)cc(C)c1Oc1nc(NC23CC(C#N)(C2)C3)nc2nc(-c3cnn(C)c3)[nH]c12 [Compound 64, (E)-3-((6-(4-(2-cyanovinyl)-2,6-dimethylphenoxy)-8-(1-methyl-1H-pyrazol-4-yl)-7H-purin-2-yl)amino)bicyclo[1.1.1]pentane-1-carbonitrile] | 274 nM | 123 nM |
| Cc1cc(/C=C/C#N)cc(C)c1Oc1nc(NC23CC(C#N)(C2)C3(F)F)nc2nn(C)cc12 [Compound 76, (E)-3-((4-(4-(2-cyanovinyl)-2,6-dimethylphenoxy)-2-methyl-2H-pyrazolo[3,4-d]pyrimidin-6-yl)amino)-2,2-difluorobicyclo[1.1.1]pentane-1-carbonitrile] | 19.3 nM | 25.3 nM |
| Cc1cc(/C=C/C#N)cc(C)c1Oc1nc(NC23CC(C#N)(C2)C3)nc2[nH]nnc12 [Compound 80, €-3-((7-(4-(2-cyanovinyl)-2,6-dimethylphenoxy)-3H-[1,2,3]triazolo[4,5-d]pyrimidin-5-yl)amino)bicyclo[1.1.1]pentane-1-carbonitrile] | 551 nM | 593 nM |
| Cc1cc(/C=C/C#N)cc(C)c1OC1=NC(NC23CC(C#N)(C2)C3)=NC2N=CN(C)C12 (stereo not shown) [Compound 89, (E)-3-((6-(4-(2-cyanovinyl)-2,6-dimethylphenoxy)-7-methyl-4,5-dihydro-7H-purin-2-yl)amino)bicyclo[1.1.1]pentane-1-carbonitrile] | 16.6 nM | 24.4 nM |
| Cc1cc(/C=C/C#N)cc(C)c1Oc1nc(NC23CC(C#N)(C2)C3)nc2nc(C)n(C)c12 [Compound 97, (E)-3-((6-(4-(2-cyanovinyl)-2,6-dimethylphenoxy)-7,8-dimethyl-7H-purin-2-yl)amino)bicyclo[1.1.1]pentane-1-carbonitrile] | 51.1 nM | 32.5 nM |
| Cc1cc(/C=C/C#N)cc(C)c1Oc1nc(NC23CC(C#N)(C2)C3)nc2ncn(CC(F)(F)F)c12 [Compound 106, (E)-3-((6-(4-(2-cyanovinyl)-2,6-dimethylphenoxy)-7-(2,2,2-trifluoroethyl)-7H-purin-2-yl)amino)bicyclo[1.1.1]pentane-1-carbonitrile] | 237 nM | 216 nM |
| Cc1cc(/C=C/C#N)cc(C)c1Oc1nc(NC23CC(C#N)(C2)C3)nc2[nH]nc(C#N)c12 [Compound 112, (E)-6-((3-cyanobicyclo[1.1.1]pentan-1-yl)amino)-4-(4-(2-cyanovinyl)-2,6-dimethylphenoxy)-1H-pyrazolo[3,4-d]pyrimidine-3-carbonitrile] | 294 nM | 745 nM |
| Cc1cc(/C=C/C#N)cc(C)c1Oc1nc(NC23CC(C#N)(C2)C3)nc2c1ncn2C(C)C [Compound 113, (E)-3-((6-(4-(2-cyanovinyl)-2,6-dimethylphenoxy)-9-isopropyl-9H-purin-2-yl)amino)bicyclo[1.1.1]pentane-1-carbonitrile] | 102 nM | 168 nM |
| Cc1cc(/C=C/C#N)cc(C)c1Oc1nc(NC23CC(C#N)(C2)C3)nc2cc[nH]c12 [Compound 115, (E)-3-((4-(4-(2-cyanovinyl)-2,6-dimethylphenoxy)-5H-pyrrolo[3,2-d]pyrimidin-2-yl)amino)bicyclo[1.1.1]pentane-1-carbonitrile] | 111 nM | 99.4 nM |
| Cc1cc(/C=C/C#N)cc(C)c1Oc1nc(NC23CC(C#N)(C2)C3)nc2[nH]nc(C)c12 [Compound 119, 3-[[4-[4-[(E)-2-cyanovinyl]-2,6-dimethyl-phenoxy]-3-methyl-1H-pyrazolo[3,4-d]pyrimidin-6-yl]amino]bicyclo[11.1.1]pentane-1-carbonitrile] | 16.9 nM | 19.3 nM |
| Cc1cc(/C=C/C#N)cc(C)c1Oc1nc(NC23CC(C#N)(C2)C3)nc2nn(C)cc12 [Compound 120, 3-[[4-[4-[(E)-2-cyanovinyl]-2,6-dimethyl-phenoxy]-2-methyl-pyrazolo[3,4-d]pyrimidin-6-yl]amino]bicyclo[1.1.1]pentane-1-carbonitrile] | 22.9 nM | 21.1 nM |
| Cc1cc(/C=C/C#N)cc(C)c1Oc1nc(NC23CC(C#N)(C2)C3)nc2cnn(C)c12 [Compound 122] | 47.3 nM | 54 nM |
| Cc1nc2nc(NC34CC(C#N)(C3)C4)nc(Oc3c(C)cc(/C=C/C#N)cc3C)c2s1 [Compound 124, 3-[[7-[4-[(E)-2-cyanovinyl]-2,6-dimethyl-phenoxy]-2-methyl-thiazolo[4,5-d]pyrimidin-5-yl]amino]bicyclo[11.1.1]pentane-1-carbonitrile] | 27 nM | 61.7 nM |
| Cc1cc(/C=C/C#N)cc(C)c1Oc1nc(NC23CC(C#N)(C2)C3)nc2c1cnn2C [Compound 128, 3-[[4-[4-[(E)-2-cyanovinyl]-2,6-dimethyl-phenoxy]-1-methyl-pyrazolo[3,4-d]pyrimidin-6-yl]amino]bicyclo[11.1.1]pentane-1-carbonitrile] | 106 nM | 131 nM |
| Cc1cc(/C=C/C#N)cc(C)c1Oc1nc(NC23CC(C#N)(C2)C3)nc2c1nnn2C [Compound 129, 3-[[7-[4-[(E)-2-cyanovinyl]-2,6-dimethyl-phenoxy]-3-methyl-triazolo[4,5-d]pyrimidin-5-yl]amino]bicyclo[11.1.1]pentane-1-carbonitrile] | 131 nM | 168 nM |
| Cc1cc(/C=C/C#N)cc(C)c1Oc1nc(NC23CC(C#N)(C2)C3)nc2c1CCN2 [Compound 130, 3-[[4-[4-[(E)-2-cyanovinyl]-2,6-dimethyl-phenoxy]-6,7-dihydro-5H-pyrrolo[2,3-d]pyrimidin-2-yl]amino]bicyclo[11.1.1]pentane-1-carbonitrile] | 56 nM | 221 nM |
| Cc1cc(/C=C/C#N)cc(C)c1Oc1nc(NC23CC(C#N)(C2)C3)nc2onc(C)c12 [Compound 142, (E)-3-((4-(4-(2-cyanovinyl)-2,6-dimethylphenoxy)-3-methylisoxazolo[5,4-d]pyrimidin-6-yl)amino)bicyclo[1.1.1]pentane-1-carbonitrile] | 17.6 nM | 24 nM |
| Cc1cc(/C=C/C#N)cc(C)c1Oc1nc(NC23CC(C#N)(C2)C3)nc2c1c(C)nn2C [Compound 148, (E)-3-((4-(4-(2-cyanovinyl)-2,6-dimethylphenoxy)-1,3-dimethyl-1H-pyrazolo[3,4-d]pyrimidin-6-yl)amino)bicyclo[1.1.1]pentane-1-carbonitrile] | 41 nM | 48.1 nM |
| Cc1cc(/C=C/C#N)cc(C)c1Oc1nc(NC23CC(C#N)(C2)C3)nc2c1CN(C)C2 [Compound 150, (E)-3-((4-(4-(2-cyanovinyl)-2,6-dimethylphenoxy)-6-methyl-6,7-dihydro-5H-pyrrolo[3,4-d]pyrimidin-2-yl)amino)bicyclo[1.1.1]pentane-1-carbonitrile] | 110 nM | 99.2 nM |
| Cc1cc(/C=C/C#N)cc(C)c1Oc1nc(NC23CC(C4COC4)(C2)C3)nc2[nH]nc(C)c12 [Compound 154, (E)-3-(3,5-dimethyl-4-((3-methyl-6-((3-(oxetan-3-yl)bicyclo[1.1.1]pentan-1-yl)amino)-1H-pyrazolo[3,4-d]pyrimidin-4-yl)oxy)phenyl)acrylonitrile] | 324 nM | 235 nM |
